Common to all, as to assay type: cell-based
Test [1] addresses T1, hGIPR (Homo sapiens, UniProt P48546).
T1 sequence (P48546 22-466): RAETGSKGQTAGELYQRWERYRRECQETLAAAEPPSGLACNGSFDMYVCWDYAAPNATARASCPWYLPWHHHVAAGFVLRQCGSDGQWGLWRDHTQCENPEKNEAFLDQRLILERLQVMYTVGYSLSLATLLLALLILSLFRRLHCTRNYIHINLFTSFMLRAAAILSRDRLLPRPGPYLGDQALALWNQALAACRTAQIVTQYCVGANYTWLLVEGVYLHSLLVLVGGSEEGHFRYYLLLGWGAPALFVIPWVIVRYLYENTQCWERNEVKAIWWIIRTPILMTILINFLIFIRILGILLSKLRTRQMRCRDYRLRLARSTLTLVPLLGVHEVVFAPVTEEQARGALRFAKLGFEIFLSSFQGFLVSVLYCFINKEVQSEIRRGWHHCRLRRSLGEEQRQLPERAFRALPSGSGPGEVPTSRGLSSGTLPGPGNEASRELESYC
Nature of the test: Functional cAMP activity in the presence of 1% HSA. Conditions: read-out: cAMP Rel EC50, hGIPR.

The target of test [2] is T2, hGLP-1R (Homo sapiens, UniProt P43220). Nature of the test: Functional cAMP activity in the presence of 1% HSA. Particulars: read-out: cAMP Rel EC50, hGLP-1R.
T2 sequence (P43220 24-463): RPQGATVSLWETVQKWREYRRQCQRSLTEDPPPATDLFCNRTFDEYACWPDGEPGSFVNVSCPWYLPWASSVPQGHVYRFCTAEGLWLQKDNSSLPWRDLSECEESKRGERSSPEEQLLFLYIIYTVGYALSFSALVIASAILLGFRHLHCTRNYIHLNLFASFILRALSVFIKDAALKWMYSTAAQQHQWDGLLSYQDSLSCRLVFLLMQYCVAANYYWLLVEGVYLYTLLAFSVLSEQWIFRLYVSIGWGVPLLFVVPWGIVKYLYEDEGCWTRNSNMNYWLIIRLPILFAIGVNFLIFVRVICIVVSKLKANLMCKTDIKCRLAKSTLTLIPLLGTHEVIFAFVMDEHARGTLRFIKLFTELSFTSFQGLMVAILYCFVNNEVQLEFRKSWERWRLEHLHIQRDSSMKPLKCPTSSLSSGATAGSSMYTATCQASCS
Another test concerns the target human GcgR (Homo sapiens, UniProt P47871). Nature of the test: Functional cAMP activity in the presence of 1% HSA. Conditions: read-out: cAMP Rel EC50, hGcgR.
The target in test [3] is T1, hGIPR. The test is described as follows: Functional cAMP activation in the presence of 0.1% casein (no HSA). Conditions: in the presence of 0.1% casein (no HSA); geometric mean; read-out: Relative cAMP EC50, hGIPR.
Test [4] concerns the target T2, hGLP-1R. Described as above. Particulars: in the presence of 0.1% casein (no HSA); geometric mean; read-out: Relative cAMP EC50, hGLP-1R.
The target of a further test is hGcgR (Homo sapiens, UniProt P47871). Described as above. Particulars: in the presence of 0.1% casein (no HSA); geometric mean; read-out: Relative cAMP EC50, hGcgR.
Chain of hGcgR (P47871 26-477): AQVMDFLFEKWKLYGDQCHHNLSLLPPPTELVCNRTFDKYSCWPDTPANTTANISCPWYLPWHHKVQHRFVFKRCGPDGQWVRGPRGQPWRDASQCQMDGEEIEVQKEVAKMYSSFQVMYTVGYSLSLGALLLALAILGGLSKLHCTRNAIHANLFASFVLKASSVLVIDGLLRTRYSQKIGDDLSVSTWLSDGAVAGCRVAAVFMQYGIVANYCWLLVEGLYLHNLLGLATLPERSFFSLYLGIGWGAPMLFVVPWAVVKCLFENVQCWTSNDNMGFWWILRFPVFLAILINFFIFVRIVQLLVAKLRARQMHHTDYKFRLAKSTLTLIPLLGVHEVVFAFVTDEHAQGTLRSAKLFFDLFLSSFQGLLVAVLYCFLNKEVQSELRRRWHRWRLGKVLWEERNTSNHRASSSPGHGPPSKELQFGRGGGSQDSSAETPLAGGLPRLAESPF

Starred links: 1 amine or outer side, 2 acyl side, 3 side chain; linkers in the order of their positions; H or OH if unused. Non-standard residues stand in square brackets, D forms with d. Groups on a side chain read outwards from the residue. *: point of attachment. C18 diacid = O=C(O)CCCCCCCCCCCCCCCCC(=O)*; γGlu = O=C(O)[C@H](CCC(=O)[*:2])N[*:1]; αMe4Pal = C[C@](N)(Cc1ccncc1)C(=O)O; αMeY = C[C@](N)(Cc1ccc(O)cc1)C(=O)O; 4Pal = N[C@@H](Cc1ccncc1)C(=O)O; αMeL = CC(C)C[C@](C)(N)C(=O)O; Orn = NCCC[C@H](N)C(=O)O; AEEA = NCCOCCOCC(=O)O; Aib = CC(C)(N)C(=O)O

The EC50 is the concentration giving half of the maximal effect.
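For Relative cAMP EC50, hGIPR in this document: intracellular cAMP rise after 30 min at 37 °C read by HTRF against a standard curve, scaled between buffer alone (0%) and top control ligand concentration (100%), four-parameter fit.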
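For Relative cAMP EC50, hGLP-1R in this document: intracellular cAMP rise after 30 min at 37 °C read by HTRF, normalized between buffer only (0%) and maximal control ligand (100%), four-parameter variable-slope fit.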
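For Relative cAMP EC50, hGcgR in this document: intracellular cAMP rise after 30 min at 37 °C, read by HTRF against a cAMP standard curve, scaled from buffer only (0%) to maximal control ligand response (100%).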

Chain of human GcgR (P47871 26-477): as above

On to “H-Y[Aib]QGTFTSD[4Pal]SR[αMeL]LDKK([γGlu-γGlu-C18 diacid])AQ[αMe4Pal]AFIEYLIAGGPSSGAPPPSGSEE-NH2 [Example 962]”, for which the 50% effective concentration (EC50) on hGIPR [1] was 9.71 nM; at hGLP-1R [2], 132 nM; at human GcgR, 485 nM; at hGIPR [3], 0.0972 nM; on hGLP-1R [4] it was 1.36 nM; on hGcgR, 3.13 nM.

On to “H-Y[Aib]QGTFTSD[4Pal]SR[αMeL]LDKK([γGlu-γGlu-C18 diacid])AQ[αMe4Pal]AFIE[αMe4Pal]LIEGGPSSGAPPPSGS-NH2 [Example 953]”, for which the EC50 came out at 10.9 nM at hGIPR [1]; 347 nM on hGLP-1R [2]; 275 nM at human GcgR; 0.111 nM at hGIPR [3]; 2.63 nM at hGLP-1R [4]; 2.75 nM at hGcgR.

As for “H-Y[Aib]QGTFTSD[4Pal]S[Orn][αMeL]LDKK([AEEA-AEEA-γGlu-C18 diacid])AQ[αMe4Pal]AFIEYLIE[Aib]GPSSGAPPPSGS-NH2 [Example 814]”, the EC50 on hGIPR [1] worked out at 27.8 nM; at hGLP-1R [2], 649 nM; at human GcgR, 554 nM; at hGIPR [3], 0.337 nM; at hGLP-1R [4], 3.76 nM; on hGcgR, 3.92 nM.

Consider “H-Y[Aib]QGTFTSD[4Pal]S[Orn][αMeL]LDKK([AEEA-γGlu-C18 diacid])AQ[Aib]AFIEYLLE[dA]GPSSGAPPPSG[4Pal]-NH2 [Example 274]”, for which the half-maximal effective concentration (EC50) was 27.6 nM on hGIPR [1]; 560 nM at hGLP-1R [2]; 1120 nM at human GcgR; 0.296 nM on hGIPR [3]; 4.9 nM on hGLP-1R [4]; 9.37 nM at hGcgR.

As to “H-Y[Aib]QGTFTSD[4Pal]S[Orn][αMeL]LDKK([AEEA-γGlu-C18 diacid])AQ[Aib]AFIEYLLE[dA]GPSS[Aib]APPPSGT-NH2 [Example 275]”, the 50% effective concentration (EC50) at hGIPR [1] is 27.7 nM; at hGLP-1R [2] it was 692 nM; at human GcgR, 882 nM; at hGIPR [3] it was 0.318 nM; at hGLP-1R [4], 4.93 nM; at hGcgR, 7.8 nM.

In the case of “H-Y[Aib]QGTFTSD[4Pal]S[Orn][αMeL]LDKK([AEEA-γGlu-C18 diacid])AQ[Aib]AFIE[αMeY]LIEGGPSSGAPPPSGS-NH2 [Example 836]”, the EC50 is 26.7 nM at hGIPR [1]; 103 nM on hGLP-1R [2]; 2100 nM on human GcgR; 0.294 nM at hGIPR [3]; 0.794 nM on hGLP-1R [4]; 17.1 nM at hGcgR.

For “H-Y[Aib]QGTFTSD[4Pal]S[Orn][αMeL]LDKK([AEEA-γGlu-C18 diacid])AQ[αMe4Pal]AFIE[αMe4Pal]LIEGGPSSGAPPPSGS-NH2 [Example 949]”, the concentration giving a half-maximal response (EC50) at hGIPR [1] was 26 nM; at hGLP-1R [2], 721 nM; at human GcgR it was 317 nM; at hGIPR [3] it was 0.203 nM; at hGLP-1R [4] it was 3.37 nM; on hGcgR it was 1.62 nM.

As for “H-Y[Aib]QGTFTSD[4Pal]S[Orn][αMeL]LDKK([AEEA-γGlu-C18 diacid])AQ[αMe4Pal]AFIE[αMe4Pal]LIEGGPSSGAPPPSGSEE-NH2 [Example 955]”, the EC50 at hGIPR [1] was determined as 42.3 nM; at hGLP-1R [2] it was 1380 nM; at human GcgR it was 366 nM; at hGIPR [3], 0.386 nM; at hGLP-1R [4], 7.74 nM; on hGcgR, 2.65 nM.

For “H-Y[Aib]QGTFTSD[4Pal]S[Orn][αMeL]LDKK([AEEA-γGlu-γGlu-C18 diacid])AQ[αMe4Pal]AFIEYLIE[Aib]GPSSGAPPPSGS-NH2 [Example 867]”, the EC50 amounted to 16.2 nM on hGIPR [1]; 474 nM at hGLP-1R [2]; 242 nM at human GcgR; 0.216 nM on hGIPR [3]; 7.38 nM at hGLP-1R [4]; 2.47 nM on hGcgR.

As for “H-Y[Aib]QGTFTSD[4Pal]S[Orn][αMeL]LDKK([AEEA-γGlu-γGlu-C18 diacid])AQ[αMe4Pal]AFIE[αMe4Pal]LIE[Aib]GPSSGEPPPSGS-NH2 [Example 987]”, the half-maximal effective concentration (EC50) amounted to 11.7 nM at hGIPR [1]; 515 nM on hGLP-1R [2]; 267 nM on human GcgR; 0.194 nM at hGIPR [3]; 6.33 nM on hGLP-1R [4]; 3.62 nM at hGcgR.

On to “H-Y[Aib]QGTFTSD[4Pal]S[Orn][αMeL]LDKK([AEEA-γGlu-γGlu-C18 diacid])AQ[αMe4Pal]AFIE[αMe4Pal]LIE[Aib]GPSSGEPPPSGSE-NH2 [Example 988]”, for which the EC50 was 11.8 nM on hGIPR [1]; 743 nM on hGLP-1R [2]; 320 nM on human GcgR; 0.198 nM on hGIPR [3]; 9.5 nM on hGLP-1R [4]; 2.52 nM on hGcgR.

Regarding “H-Y[Aib]QGTFTSD[4Pal]S[Orn][αMeL]LDKK([γGlu-AEEA-γGlu-C18 diacid])AQ[αMe4Pal]AFIEYLIE[Aib]GPSSGAPPPSGS-NH2 [Example 868]”, the concentration giving a half-maximal response (EC50) came out at 17.7 nM at hGIPR [1]; 822 nM at hGLP-1R [2]; 622 nM on human GcgR; 0.208 nM at hGIPR [3]; 5.82 nM on hGLP-1R [4]; 7.4 nM at hGcgR.

For the substance “H-Y[Aib]QGTFTSD[4Pal]S[Orn][αMeL]LDKK([γGlu-γGlu-C18 diacid])AQ[Aib]AFIE[αMeY]LIEGGPSSGAPPPSGS-NH2 [Example 941]”, the EC50 on hGIPR [1] was 22.1 nM; at hGLP-1R [2] it was 113 nM; at human GcgR it was 1430 nM; on hGIPR [3] it was 0.183 nM; at hGLP-1R [4], 0.764 nM; on hGcgR it was 11.7 nM.

“H-Y[Aib]QGTFTSD[4Pal]S[Orn][αMeL]LDKK([γGlu-γGlu-C18 diacid])AQ[Aib]AFIE[αMeY]LLEGGPSSGAPPPSGS-NH2 [Example 942]”: the half-maximal effective concentration (EC50) at hGIPR [1] was 28.3 nM; at hGLP-1R [2] it was 490 nM; at human GcgR, 1560 nM; on hGIPR [3], 0.188 nM; on hGLP-1R [4], 3.52 nM; at hGcgR, 6.32 nM.

For the substance “H-Y[Aib]QGTFTSD[4Pal]S[Orn][αMeL]LDKK([γGlu-γGlu-C18 diacid])AQ[αMe4Pal]AFIEYLIAGGESSGAPPPSGSEE-NH2 [Example 964]”, the EC50 at hGIPR [1] was found to be 21.4 nM; on hGLP-1R [2], 267 nM; on human GcgR, 324 nM; at hGIPR [3] it was 0.288 nM; on hGLP-1R [4] it was 2.67 nM; at hGcgR, 2.75 nM.

As to “H-Y[Aib]QGTFTSD[4Pal]S[Orn][αMeL]LDKK([γGlu-γGlu-C18 diacid])AQ[αMe4Pal]AFIEYLIAGGPSSGAPPPSGSE-NH2 [Example 1009]”, the EC50 was 9.72 nM on hGIPR [1]; 174 nM at hGLP-1R [2]; 268 nM at human GcgR; 0.13 nM at hGIPR [3]; 2.1 nM at hGLP-1R [4]; 4.21 nM at hGcgR.

Consider “H-Y[Aib]QGTFTSD[4Pal]S[Orn][αMeL]LDKK([γGlu-γGlu-C18 diacid])AQ[αMe4Pal]AFIEYLIAGGPSSGEPPPSGE-NH2 [Example 979]”, for which the concentration for a half-maximal effect (EC50) at hGIPR [1] worked out at 19.2 nM; on hGLP-1R [2] it was 257 nM; at human GcgR it was 359 nM; at hGIPR [3], 0.181 nM; at hGLP-1R [4] it was 2.72 nM; on hGcgR, 3.34 nM.

As for “H-Y[Aib]QGTFTSD[4Pal]S[Orn][αMeL]LDKK([γGlu-γGlu-C18 diacid])AQ[αMe4Pal]AFIEYLIAGGPSSGEPPPSGTE-NH2 [Example 980]”, the EC50 on hGIPR [1] was 15.4 nM; on hGLP-1R [2], 290 nM; on human GcgR, 239 nM; on hGIPR [3], 0.18 nM; on hGLP-1R [4], 2.26 nM; on hGcgR, 2.41 nM.

The values are drawn from patent US20240270821A1, “GIP/GLP1/GCG TRI-RECEPTOR AGONISTS AND USES THEREOF” (priority 2023, published 2024).
